Columns and labels:
[1] = system: wild-type and drug-resistant HIV-1 strains; test: Antiviral assays, all viruses tested summarised; type: cell-based
[2] = biological target: three MDR protease variants (M1-M3); test: HIV-1 protease inhibition assay; type: biochemical; settings: against all three MDR protease variants (M1-M3)
[3] = against all the viruses tested (wild-type and MDR HIV-1)

## CC[C@H](C)CN(C[C@@H](O)[C@H](Cc1ccccc1)NC(=O)OCCN1CCNC1=O)S(=O)(=O)c1ccc2ncsc2c1 [14g, 2-(2-oxoimidazolidin-1-yl)ethyl ((2S,3R)-3-hydroxy-4-(N-((S)-2-methylbutyl)benzo[d]thiazole-6-sulfonamido)-1-phenylbutan-2-yl)carbamate]
[1]; [3]
  EC50: modest antiviral potency

## CC[C@H](C)CN(C[C@@H](O)[C@H](Cc1ccccc1)NC(=O)OC[C@@H](C)C(=O)OC)S(=O)(=O)c1ccc(OC)cc1 [13f, (R)-methyl 3-((((2S,3R)-3-hydroxy-4-(4-methoxy-N-((S)-2-methylbutyl)phenylsulfonamido)-1-phenylbutan-2-yl)carbamoyl)oxy)-2-methylpropanoate]
[2]
  MDR Ki: excellent potencies in the low nM ranges
[1]; [3]
  EC50: modest antiviral potency

## CC[C@H](C)CN(C[C@@H](O)[C@H](Cc1ccccc1)NC(=O)OC[C@@H]1CCC(=O)N1)S(=O)(=O)c1ccc(OC)cc1 [13j, ((S)-5-oxopyrrolidin-2-yl)methyl ((2S,3R)-3-hydroxy-4-(4-methoxy-N-((S)-2-methylbutyl)phenylsulfonamido)-1-phenylbutan-2-yl)carbamate]
[2]
  MDR Ki: excellent potencies in the low nM ranges
[1]; [3]
  EC50: modest antiviral potency

## CC[C@H](C)CN(C[C@@H](O)[C@H](Cc1ccccc1)NC(=O)OC[C@@H]1CCC(=O)N1)S(=O)(=O)c1ccc2ncsc2c1 [14j, ((S)-5-oxopyrrolidin-2-yl)methyl ((2S,3R)-3-hydroxy-4-(N-((S)-2-methylbutyl)benzo[d]thiazole-6-sulfonamido)-1-phenylbutan-2-yl)carbamate]
[2]
  MDR Ki: excellent potencies in the low nM ranges
[1]; Human immunodeficiency virus 1
  EC50: 15.5 to 35.6 nM

## CC[C@H](C)CN(C[C@@H](O)[C@H](Cc1ccccc1)NC(=O)OCCNC(=O)C(Cl)Cl)S(=O)(=O)c1ccc(OC)cc1 [13c, 2-(2,2-dichloroacetamido)ethyl (2S,3R)-3-hydroxy-4-(4-methoxy-N-((S)-2-methylbutyl)phenylsulfonamido)-1-phenylbutan-2-ylcarbamate]
[2]
  MDR Ki: excellent potencies in the low nM ranges

From article PMC3409094 (Journal of medicinal chemistry, 2012)
